Drawing on ChEMBL document CHEMBL1909046, “DrugMatrix in vitro pharmacology data”, this text covers IC50 and Ki for 23 compounds.

Assay [1] is described as follows: DRUGMATRIX: Calcium Channel Type L, Dihydropyridine radioligand binding (ligand: [3H] Nitrendipine). The settings on record: Not Active = under 50% inhibition at 10 µM. It counts as cell membranes, Rattus norvegicus, Wistar, Cerebral cortex, Membrane.
The target of assay [2] is 5-hydroxytryptamine receptor 2B (Homo sapiens, UniProt P41595). The class given is cell membranes, CHO-K1, Membrane. Note: in other assays of this panel Not Active means under 50% inhibition at 10 µM.
Sequence of 5-hydroxytryptamine receptor 2B (P41595 whole entry): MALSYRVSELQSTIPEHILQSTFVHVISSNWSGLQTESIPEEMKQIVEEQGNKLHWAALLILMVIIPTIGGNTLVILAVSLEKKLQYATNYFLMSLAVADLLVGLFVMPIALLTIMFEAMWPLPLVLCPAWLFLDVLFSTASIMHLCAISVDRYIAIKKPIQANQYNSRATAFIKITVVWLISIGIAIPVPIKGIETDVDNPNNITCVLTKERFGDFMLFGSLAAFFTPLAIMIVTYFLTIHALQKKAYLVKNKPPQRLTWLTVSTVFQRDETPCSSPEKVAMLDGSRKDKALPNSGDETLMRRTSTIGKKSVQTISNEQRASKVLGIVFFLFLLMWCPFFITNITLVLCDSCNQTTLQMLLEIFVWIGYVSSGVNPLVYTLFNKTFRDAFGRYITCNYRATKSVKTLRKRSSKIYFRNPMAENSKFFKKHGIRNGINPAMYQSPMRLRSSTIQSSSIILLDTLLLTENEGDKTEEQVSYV
Assay [3] addresses 5-hydroxytryptamine receptor 6 (Homo sapiens, UniProt P50406). It counts as cell membranes, HeLa, Membrane.
In a further assay the target is Insulin receptor (Rattus norvegicus, UniProt P15127). It counts as cell membranes, Wistar, Liver, Membrane. Note: in other assays of this panel Not Active means under 50% inhibition at 10 µM.
Sequence of Insulin receptor (P15127 27-759 limits assumed): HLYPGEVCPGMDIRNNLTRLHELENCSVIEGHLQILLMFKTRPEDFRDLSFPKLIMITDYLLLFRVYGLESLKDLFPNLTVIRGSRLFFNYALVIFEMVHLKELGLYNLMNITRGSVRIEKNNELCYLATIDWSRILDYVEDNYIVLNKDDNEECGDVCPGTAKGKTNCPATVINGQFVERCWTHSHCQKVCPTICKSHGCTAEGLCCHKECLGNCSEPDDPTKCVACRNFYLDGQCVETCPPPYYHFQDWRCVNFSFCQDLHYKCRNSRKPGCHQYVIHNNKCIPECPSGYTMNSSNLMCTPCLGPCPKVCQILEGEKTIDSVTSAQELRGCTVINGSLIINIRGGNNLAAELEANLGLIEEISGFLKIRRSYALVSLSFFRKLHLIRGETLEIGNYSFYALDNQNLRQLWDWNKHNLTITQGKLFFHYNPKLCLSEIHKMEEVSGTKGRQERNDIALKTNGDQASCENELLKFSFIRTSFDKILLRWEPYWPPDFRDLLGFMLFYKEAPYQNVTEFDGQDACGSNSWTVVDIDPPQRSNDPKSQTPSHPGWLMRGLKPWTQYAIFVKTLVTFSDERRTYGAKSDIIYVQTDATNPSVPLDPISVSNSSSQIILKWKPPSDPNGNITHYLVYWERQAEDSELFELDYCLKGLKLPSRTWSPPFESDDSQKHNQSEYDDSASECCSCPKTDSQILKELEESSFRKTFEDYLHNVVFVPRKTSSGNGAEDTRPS
Sequence of Insulin receptor (P15127 764-1383 limits assumed): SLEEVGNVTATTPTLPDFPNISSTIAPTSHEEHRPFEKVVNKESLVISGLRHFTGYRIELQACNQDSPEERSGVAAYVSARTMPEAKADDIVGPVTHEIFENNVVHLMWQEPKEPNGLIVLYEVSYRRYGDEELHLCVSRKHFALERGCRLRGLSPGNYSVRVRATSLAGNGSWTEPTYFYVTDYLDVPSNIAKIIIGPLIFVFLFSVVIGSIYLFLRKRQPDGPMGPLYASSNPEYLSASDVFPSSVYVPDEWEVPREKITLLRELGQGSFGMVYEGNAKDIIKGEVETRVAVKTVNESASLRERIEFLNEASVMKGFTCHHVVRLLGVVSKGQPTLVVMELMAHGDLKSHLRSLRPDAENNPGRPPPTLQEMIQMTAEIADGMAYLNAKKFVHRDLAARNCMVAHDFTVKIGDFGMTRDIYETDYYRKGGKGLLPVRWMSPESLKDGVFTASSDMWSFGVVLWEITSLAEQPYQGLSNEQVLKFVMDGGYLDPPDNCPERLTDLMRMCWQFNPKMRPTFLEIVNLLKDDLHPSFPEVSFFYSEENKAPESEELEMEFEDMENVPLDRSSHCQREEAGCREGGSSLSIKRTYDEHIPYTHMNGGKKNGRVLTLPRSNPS
Assay [4] addresses Kappa-type opioid receptor (Homo sapiens, UniProt P41145). Put plainly: DRUGMATRIX: Opiate kappa (OP2, KOP) radioligand binding (ligand: [3H] Diprenorphine). It counts as cell membranes, HEK293, Membrane. The settings on record: Not Active = under 50% inhibition at 10 µM.
Another assay deals with Mu-type opioid receptor (Homo sapiens, UniProt P35372). Briefly: DRUGMATRIX: Opiate mu (OP3, MOP) radioligand binding (ligand: [3H] Diprenorphine). The settings on record: Not Active = under 50% inhibition at 10 µM. It counts as cell membranes, CHO-K1, Membrane.
Sequence of Mu-type opioid receptor (P35372 whole entry): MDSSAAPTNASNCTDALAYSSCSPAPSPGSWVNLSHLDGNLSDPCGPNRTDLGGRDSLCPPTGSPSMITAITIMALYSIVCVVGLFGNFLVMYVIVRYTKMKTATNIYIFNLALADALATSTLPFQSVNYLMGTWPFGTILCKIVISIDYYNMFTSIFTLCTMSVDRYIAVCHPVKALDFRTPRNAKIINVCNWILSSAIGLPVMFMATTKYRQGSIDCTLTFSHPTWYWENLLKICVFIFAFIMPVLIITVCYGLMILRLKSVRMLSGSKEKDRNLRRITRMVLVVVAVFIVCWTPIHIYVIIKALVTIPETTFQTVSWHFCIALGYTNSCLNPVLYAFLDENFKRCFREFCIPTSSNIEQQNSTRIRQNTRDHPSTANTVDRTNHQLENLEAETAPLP

Sequence of Kappa-type opioid receptor (P41145 whole entry): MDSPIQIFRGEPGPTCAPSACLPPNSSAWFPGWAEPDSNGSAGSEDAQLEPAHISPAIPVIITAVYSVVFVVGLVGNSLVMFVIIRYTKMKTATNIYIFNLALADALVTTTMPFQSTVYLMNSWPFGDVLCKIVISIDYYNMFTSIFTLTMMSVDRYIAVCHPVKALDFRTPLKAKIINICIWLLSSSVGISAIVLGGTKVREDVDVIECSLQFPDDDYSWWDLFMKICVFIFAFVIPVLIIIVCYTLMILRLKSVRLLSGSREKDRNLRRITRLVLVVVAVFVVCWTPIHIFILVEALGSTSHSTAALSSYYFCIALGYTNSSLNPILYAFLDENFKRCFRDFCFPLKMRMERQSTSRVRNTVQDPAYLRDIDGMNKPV
Sequence of 5-hydroxytryptamine receptor 6 (P50406 whole entry): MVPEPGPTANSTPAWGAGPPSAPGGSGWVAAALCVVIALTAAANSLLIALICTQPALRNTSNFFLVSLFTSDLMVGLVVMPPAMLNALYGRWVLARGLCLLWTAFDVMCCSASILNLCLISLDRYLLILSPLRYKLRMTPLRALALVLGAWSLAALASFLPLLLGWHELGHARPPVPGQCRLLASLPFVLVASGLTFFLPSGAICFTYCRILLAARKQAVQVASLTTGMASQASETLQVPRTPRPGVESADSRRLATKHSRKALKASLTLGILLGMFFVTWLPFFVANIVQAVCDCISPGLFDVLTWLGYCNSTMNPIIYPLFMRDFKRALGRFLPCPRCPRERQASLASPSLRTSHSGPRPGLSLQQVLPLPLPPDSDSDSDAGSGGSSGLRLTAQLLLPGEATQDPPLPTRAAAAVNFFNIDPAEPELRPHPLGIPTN

`COc1cc(N)nc2[nH]c(-c3ccc(F)cc3)c(-c3ccncc3)c12`: the IC50 entry (in assay [1]; in assay [2] (cho-k1); in assay [3] (hela); against Insulin receptor; in assay [4] (hek293); at Mu-type opioid receptor (cho-k1)) was “Not Active” throughout. Further, in assay [1], the inhibition constant Ki entry is listed as “Not Active”.
Consider `CNS(=O)(=O)Cc1ccc2[nH]cc(CCN(C)C)c2c1`, for which the IC50 result (in assay [1]; in assay [2] (cho-k1); in assay [3] (hela); against Insulin receptor; in assay [4] (hek293); on Mu-type opioid receptor (cho-k1)) was “Not Active” in each case. For the same compound, in assay [1], the Ki result is reported as “Not Active”.
For the compound `CCCc1nn(C)c2c(=O)[nH]c(-c3cc(S(=O)(=O)N4CCN(C)CC4)ccc3OCC)nc12`, the IC50 result (in assay [1]; in assay [2] (cho-k1); in assay [3] (hela); against Insulin receptor; in assay [4] (hek293); on Mu-type opioid receptor (cho-k1)) was “Not Active” in each case. In addition, in assay [1], the inhibition constant (Ki) result is recorded as “Not Active”.
In the case of `COc1ccc(/C=C/C(=O)Nc2ccccc2C(=O)O)cc1OC`, the half-maximal inhibitory concentration (IC50) result (in assay [1]; in assay [2] (cho-k1); in assay [3] (hela); on Insulin receptor; in assay [4] (hek293); on Mu-type opioid receptor (cho-k1)) was “Not Active” in each case. Also, in assay [1], the Ki entry is given as “Not Active”.
As to `CCOC(N)=O`, the IC50 entry (in assay [1]; in assay [2] (cho-k1); in assay [3] (hela); on Insulin receptor; in assay [4] (hek293); on Mu-type opioid receptor (cho-k1)) was “Not Active” in each case. For the same compound, the inhibition constant Ki entry in assay [1] is listed as “Not Active”.
In the case of `CC(=O)Nc1nnc(S(N)(=O)=O)s1` [ACETAZOLAMIDE], the IC50 result (in assay [2] (cho-k1); in assay [3] (hela); against Insulin receptor; in assay [4] (hek293); at Mu-type opioid receptor (cho-k1)) was “Not Active” each time.
For `O=c1[nH]c2ccccc2n1CCCN1CCC(n2c(=O)[nH]c3cc(Cl)ccc32)CC1` [DOMPERIDONE], the IC50 entry (in assay [3] (hela); against Insulin receptor) was “Not Active” throughout.
Turning to `CC1=C(CC(=O)O)c2cc(F)ccc2/C1=C\c1ccc(S(C)(=O)=O)cc1` [EXISULIND], the IC50 entry (in assay [1]; in assay [2] (cho-k1); in assay [3] (hela); on Insulin receptor; in assay [4] (hek293); on Mu-type opioid receptor (cho-k1)) was “Not Active” each time. Also, in assay [1], the Ki entry was “Not Active”.
For `CC(C)OC(=O)C(C)(C)Oc1ccc(C(=O)c2ccc(Cl)cc2)cc1` [FENOFIBRATE], the IC50 entry (in assay [2] (cho-k1); in assay [3] (hela); at Insulin receptor; in assay [4] (hek293); on Mu-type opioid receptor (cho-k1)) was “Not Active” in each case.
In the case of `OCCN1CCN(CCCN2c3ccccc3Sc3ccc(C(F)(F)F)cc32)CC1` [FLUPHENAZINE], the half-inhibitory concentration (IC50) was 39 nM in assay [2] (read-out: IC50); 52 nM in assay [3] (read-out: IC50); “Not Active” at Insulin receptor; 24700 nM in assay [4] (read-out: IC50); 20700 nM on Mu-type opioid receptor (read-out: IC50). For the same compound, the Ki in assay [2] (read-out: Ki) is 25 nM; in assay [3] (read-out: Ki), 24 nM; in assay [4] it was 9890 nM; on Mu-type opioid receptor, 8420 nM.
For the compound `CN1C2CCCC1CC(NC(=O)c1nn(C)c3ccccc13)C2` (stereo not drawn) [GRANISETRON], the half-maximal inhibitory concentration (IC50) entry (in assay [2] (cho-k1); in assay [3] (hela); at Insulin receptor; in assay [4] (hek293); at Mu-type opioid receptor (cho-k1)) was “Not Active” each time.
Regarding `Nc1nc2c(c(=O)[nH]1)N(C=O)C(CNc1ccc(C(=O)N[C@@H](CCC(=O)O)C(=O)O)cc1)CN2` (stereo partly drawn) [LEUCOVORIN], the half-inhibitory concentration (IC50) result (in assay [1]; in assay [2] (cho-k1); in assay [3] (hela); on Insulin receptor; in assay [4] (hek293); at Mu-type opioid receptor (cho-k1)) was “Not Active” in each case. In addition, in assay [1], the Ki entry is recorded as “Not Active”.
In the case of `C[C@@H](O)[C@H]1C(=O)N2C(C(=O)O)=C(S[C@@H]3CN[C@H](C(=O)N(C)C)C3)[C@H](C)[C@H]12` [MEROPENEM], the IC50 entry (in assay [1]; in assay [2] (cho-k1); in assay [3] (hela); on Insulin receptor; in assay [4] (hek293); on Mu-type opioid receptor (cho-k1)) was “Not Active” in each case. Besides, the Ki entry in assay [1] is on record as “Not Active”.
On to `CC[C@@H](CO)NC(=O)[C@@H]1C=C2c3cccc4c3c(cn4C)C[C@H]2N(C)C1` [METHYSERGIDE], for which the half-inhibitory concentration (IC50) was 162 nM in assay [3] (read-out: IC50), “Not Active” against Insulin receptor, “Not Active” in assay [4] (hek293) and “Not Active” at Mu-type opioid receptor (cho-k1). Further, the Ki in assay [3] (read-out: Ki) was 75 nM.
In the case of `CCN(CC)CC#CCOC(=O)C(O)(c1ccccc1)C1CCCCC1` (stereo not drawn) [OXYBUTYNIN], the concentration for half-maximal inhibition (IC50) result (in assay [3] (hela); against Insulin receptor; in assay [4] (hek293); at Mu-type opioid receptor (cho-k1)) was “Not Active” each time.
For `O=P(O)(O)C(O)(Cc1cccnc1)P(=O)(O)O` [RISEDRONIC ACID], the IC50 entry (in assay [1]; in assay [2] (cho-k1); in assay [3] (hela); against Insulin receptor; in assay [4] (hek293); on Mu-type opioid receptor (cho-k1)) was “Not Active” throughout. Besides, in assay [1], the inhibition constant (Ki) result is on record as “Not Active”.
Turning to `CN(CCOc1ccc(CC2SC(=O)NC2=O)cc1)c1ccccn1` (stereo not drawn) [ROSIGLITAZONE], the IC50 entry (in assay [1]; in assay [2] (cho-k1); in assay [3] (hela); against Insulin receptor; in assay [4] (hek293); on Mu-type opioid receptor (cho-k1)) was “Not Active” each time. For the same compound, the inhibition constant Ki entry in assay [1] was “Not Active”.
Turning to `C=C(C)[C@H]1Cc2c(ccc3c2O[C@@H]2COc4cc(OC)c(OC)cc4[C@@H]2C3=O)O1` [ROTENONE], the half-inhibitory concentration (IC50) entry was “Not Active” in assay [1], “Not Active” in assay [2] (cho-k1), 870 nM in assay [3] (read-out: IC50) and “Not Active” at Insulin receptor. The Ki result in assay [1] was “Not Active”; in assay [3] (read-out: Ki) it was 404 nM.
`C#CCN(C)[C@H](C)Cc1ccccc1` [SELEGILINE]: the concentration for half-maximal inhibition (IC50) entry (in assay [1]; in assay [2] (cho-k1); in assay [3] (hela); at Insulin receptor; in assay [4] (hek293); at Mu-type opioid receptor (cho-k1)) was “Not Active” throughout. The inhibition constant (Ki) entry in assay [1] is given as “Not Active”.
`O=c1n(CCCN2CCN(c3cccc(Cl)c3)CC2)nc2ccccn12` [TRAZODONE]: the 50% inhibitory concentration (IC50) entry (in assay [3] (hela); on Insulin receptor; in assay [4] (hek293); on Mu-type opioid receptor (cho-k1)) was “Not Active” each time.
With `O=C(O)C(Cl)(Cl)Cl` [TRICHLOROACETIC ACID], the IC50 entry (in assay [1]; in assay [2] (cho-k1); in assay [3] (hela); against Insulin receptor) was “Not Active” each time. Further, in assay [1], the Ki result is “Not Active”.
As to STANNOUS FLUORIDE, the 50% inhibitory concentration (IC50) entry (in assay [1]; in assay [2] (cho-k1); in assay [3] (hela); against Insulin receptor) was “Not Active” throughout. Moreover, the inhibitory constant (Ki) result (in assay [1]; in assay [2] (cho-k1); in assay [3] (hela); at Insulin receptor) was “Not Active” in each case.
Turning to THIMEROSAL, the IC50 result is “Not Active” in assay [1]; “Not Active” in assay [2] (cho-k1); 5940 nM in assay [3] (hela, read-out: IC50); “Not Active” against Insulin receptor. The Ki result is “Not Active” in assay [1]; “Not Active” in assay [2] (cho-k1); 2760 nM in assay [3] (hela, read-out: Ki); “Not Active” on Insulin receptor.

One may read the IC50 as the midpoint of a concentration-inhibition curve. In general, Ki refers to the dissociation constant of the complex between target and ligand, obtained from inhibition or displacement.
